The target of assay [1] is His-tagged human recombinant kinase full-length Akt1 (Homo sapiens (Human), UniProt P31749). In words: Akt1 kinase assay (TR-FRET). The assay is classed as biochemical. The note with it: 10 μM ATP; read-out: Akt1, median IC50. As to the method:
Biological Assay 1.0: Akt1 Kinase Assay
Akt1 inhibitory activity of compounds of the present invention was quantified employing the Akt1 TR-FRET assay as described in the following paragraphs.
As substrate for the kinase reaction the biotinylated peptide biotin-Ahx-[…] (C-terminus in amide form) was used which can be purchased e.g. from the company Biosynthan GmbH (Berlin-Buch, Germany).
For the assay 50 nl of a 100 fold concentrated solution of the test compound in DMSO was pipetted into a black low volume 384 well microtiter plate (Greiner Bio-One, Frickenhausen, Germany), 2 μl of a solution of Akt1 in assay buffer [50 mM TRIS/HCl pH 7.5, 5 mM MgCl2, 1 mM dithiothreitol, 0.02% (v/v) Triton X-100 (Sigma)] were added and the mixture was incubated for 15 min at 22° C. to allow prebinding of the test compounds to the enzyme before the start of the kinase reaction. […] The concentration of Akt1 in the assay was adjusted depending of the activity of the enzyme lot and was chosen appropriate to have the assay in the linear range, typical enzyme concentrations were in the range of about 0.05 ng/μl (final conc. in the 5 μl assay volume).
The resulting mixture was incubated 1 h at 22° C. to allow the binding of the biotinylated phosphorylated peptide to the streptavidine-XL665 and the antibodies. Subsequently the amount of phosphorylated substrate was evaluated by measurement of the resonance energy transfer from the anti-mouse-IgG-Eu-Chelate to the streptavidine-XL665.
On the technique in general: In TR-FRET formats the signal depends on donor and acceptor labels being close together.

The subject of assay [2] is p-AKT1/2/3-S473 in KPL4 breast tumour cell line. In words: Cellular p-AKT1/2/3-S473 assay. Particulars: KPL4 breast tumour cell line, 2 hours treatment; read-out: pAKT-S743 median IC50. The assay is classed as cell-based. The procedure: The molecular mechanism of action was investigated in a set of experiments to assess the inhibition of the PI3K-AKT-mTOR pathway in responsive cell lines such as KPL4 breast tumour cell line (PIK3CAH1047R, HER20/E and hormone independent). The phospho-substrates of PI3K-AKT-mTOR axis were used as the read-outs to reflect pathway inhibition. Cells were seeded at 60-80% confluency per well in 96-well cell culture plates. After overnight incubation at 37° C. 5% CO2, cells were treated with compounds and vehicle at 37° C. for 2 hours. […] All measurements where at least done in duplicates and confirmed by independent repetition.
Alternatively pAKT-S473 was measured using the “Akt Duplex” of the MULTI-SPOT® Assay System (Fa. Meso Scale Discovery, Cat# N41100B-1) following manufacturers instructions. Each assay used 20 μg of protein extract and measured total AKT and p-AKT content simultaneously in one well. All measurements where at least done in duplicates and confirmed by independent repetition. Values for P-AKT are expressed as percentage of P-AKT level compared to total-AKT content of the extracts.

Assay [3] has as its system KPL-4 breast cancer cell line. In words: Tumor cell proliferation assay (CellTiter-Glo, 72 h), KPL-4. The assay is classed as cell-based. The note with it: KPL4, 72h drug exposure. The procedure:
Biological Assay 4.0: Tumor Cell Proliferation Assays
Compounds were tested in a cell-based assay that measures the capacity of the compounds to inhibit tumour cell proliferation following a 72h drug exposure. Cell viability is determined using CellTiter-Glow® (CTG, Promega, cat# G7571/2/3). The CellTiter-Glo® Luminescent Cell Viability Assay is a homogeneous method to determine the number of viable cells in culture. Detection is based on using the luciferase reaction to measure the amount of ATP from viable cells. The amount of ATP in cells correlates with cell viability. Within minutes after a loss of membrane integrity, cells lose the ability to synthesize ATP, and endogenous ATPases destroy any remaining ATP; thus the levels of ATP fall precipitously.
For each cell line assayed, cells were plated onto a separate plate for determination of […] at t=0 hour and t=72 hour time points. Following overnight incubation at 37° C., chemiluminescence values for the t=0 samples were determined after adding 10 μl medium and 100 μl CTG solution according to manufacture protocol. Plates for the t=72 hour time points were treated with compounds diluted into growth medium at ten times final concentration added in 10 μL to the cell culture plate. Cells were then incubated for 72 hours at 37° C. Chemiluminescence values for the t=72 hour samples were determined. […] Experiments were controlled using a reference compound as standard.
(In general: In ATP-based viability assays light output follows the ATP content of the culture.)

Chain of His-tagged human recombinant kinase full-length Akt1 (P31749 whole entry): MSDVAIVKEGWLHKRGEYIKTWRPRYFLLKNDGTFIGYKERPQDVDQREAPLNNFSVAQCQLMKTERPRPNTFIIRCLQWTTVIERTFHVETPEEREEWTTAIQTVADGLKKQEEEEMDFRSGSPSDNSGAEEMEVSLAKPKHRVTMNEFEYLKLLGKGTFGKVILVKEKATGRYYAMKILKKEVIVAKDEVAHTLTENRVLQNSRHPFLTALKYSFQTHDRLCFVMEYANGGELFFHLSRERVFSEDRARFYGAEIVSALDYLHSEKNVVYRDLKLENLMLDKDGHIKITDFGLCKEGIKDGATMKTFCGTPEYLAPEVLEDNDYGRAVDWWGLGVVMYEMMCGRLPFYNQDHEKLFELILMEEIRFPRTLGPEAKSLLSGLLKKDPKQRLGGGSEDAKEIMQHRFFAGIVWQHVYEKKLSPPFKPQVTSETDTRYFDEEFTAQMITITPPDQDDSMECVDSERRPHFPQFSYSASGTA

On to `COC(=O)c1cccn2c(-c3ccccc3)c(-c3ccc(C4(N)CCC4)cc3)nc12` [Example 2-23], for which the IC50 turned out to be 0.047 µM in assay [1], 1.01 µM in assay [2] and 9.8 µM in assay [3].

For `NC1(c2ccc(-c3nc4ccc(CO)cn4c3-c3ccccc3)cc2)CCC1` [Example 2-25], the IC50 in assay [1] is 0.504 µM; in assay [2], 0.213 µM; in assay [3] it was 2.3 µM.

As for `COc1ccc(COc2ccn3c(-c4ccccc4)c(-c4ccc(C5(N)CCC5)cc4)nc3n2)cn1` [Example 2-26], the half-maximal inhibitory concentration (IC50) came to 0.221 µM in assay [1], 0.09 µM in assay [2] and 1.9 µM in assay [3].

For the compound `COCCOc1ccn2c(-c3ccccc3)c(-c3ccc(C4(N)CCC4)cc3)nc2n1` [Example 2-27], the IC50 in assay [1] was determined as 1.19 µM; in assay [2] it was 0.111 µM; in assay [3], 1.9 µM.

Regarding `COc1cc(COc2ccn3c(-c4ccccc4)c(-c4ccc(C5(N)CCC5)cc4)nc3n2)ccn1` [Example 2-28], the results for the IC50 in assay [1], in assay [2] and in assay [3] were 0.179 µM, 0.114 µM and 1.8 µM, respectively.

Take `CCc1cnc2nc(-c3ccc(C4(N)CCC4)cc3)c(-c3ccccc3)n2c1` [Example 2-33]: the IC50 was determined as 0.379 µM in assay [1], 0.187 µM in assay [2] and 1 µM in assay [3].

Turning to `NC1(c2ccc(-c3nc4cc(-c5ccc(F)cc5)ccn4c3-c3ccccc3)cc2)CCC1` [Example 2-34], the IC50 turned out to be 0.989 µM in assay [1], 1.95 µM in assay [2] and 2.2 µM in assay [3].

In the case of `COC(=O)c1ccn2c(-c3ccccc3)c(-c3ccc(C4(N)CCC4)cc3)nc2c1` [Example 2-35], the IC50 was found to be 0.226 µM in assay [1], 0.975 µM in assay [2] and 5 µM in assay [3].

Take `NC1(c2ccc(-c3nc4cc(C5CC5)ccn4c3-c3ccccc3)cc2)CCC1` [Example 2-37]: the figures for the IC50 in assay [1], in assay [2] and in assay [3] were 1.64 µM, 0.441 µM and 1.9 µM, respectively.

As for `CCc1ccc2nc(-c3ccc(C4(N)CCC4)cc3)c(-c3ccccc3)n2c1` [Example 2-38], the results for the IC50 in assay [1], in assay [2] and in assay [3] were 0.26 µM, 0.467 µM and 1.9 µM, respectively.

As for `NC1(c2ccc(-c3nc4cc(C(=O)N5CCCC5)ccn4c3-c3ccccc3)cc2)CCC1` [Example 2-42], the figures for the IC50 in assay [1], in assay [2] and in assay [3] were 19.4 µM, 1.24 µM and 9.2 µM, respectively.

With `CCOC(=O)c1cccn2c(-c3ccccc3)c(-c3ccc(C4(N)CCC4)cc3)nc12` [Example 2-43], the IC50 worked out at 0.062 µM in assay [1], 1.34 µM in assay [2] and 9.2 µM in assay [3].

`NC1(c2ccc(-c3nc4c(C5CC5)cccn4c3-c3ccccc3)cc2)CCC1` [Example 2-47]: the 50% inhibitory concentration (IC50) came out at 0.14 µM in assay [1], 0.339 µM in assay [2] and 2 µM in assay [3].

`C=Cc1ccc2nc(-c3ccc(C4(N)CCC4)cc3)c(-c3ccccc3)n2c1` [Example 2-48]: the IC50 in assay [1] stood at 0.3 µM; in assay [2], 1.03 µM; in assay [3] it was 2.5 µM.

With `NC1(c2ccc(-c3nc4c(-c5cn[nH]c5)cccn4c3-c3ccccc3)cc2)CCC1` [Example 2-50], the IC50 in assay [1] is 0.099 µM; in assay [2] it was 0.297 µM; in assay [3] it was 1.9 µM.

As for `NC1(c2ccc(-c3nc4ccc(C(=O)O)cn4c3-c3ccccc3)cc2)CCC1` [Example 2-51], the IC50 is 0.091 µM in assay [1], 4.75 µM in assay [2] and 10 µM in assay [3].

For `CC(C)NC(=O)c1ccc2nc(-c3ccc(C4(N)CCC4)cc3)c(-c3ccccc3)n2c1` [Example 2-53], the IC50 was determined as 1.71 µM in assay [1], 0.276 µM in assay [2] and 2 µM in assay [3].

Take `NC1(c2ccc(-c3nc4ccc(C(=O)NCCF)cn4c3-c3ccccc3)cc2)CCC1` [Example 2-54]: the results for the IC50 in assay [1], in assay [2] and in assay [3] were 0.423 µM, 0.083 µM and 1.3 µM, respectively.

For `NC1(c2ccc(-c3nc4ccc(C(=O)NCCO)cn4c3-c3ccccc3)cc2)CCC1` [Example 2-55], the IC50 was determined as 1.14 µM in assay [1], 0.308 µM in assay [2] and 5.5 µM in assay [3].

As to `COCCNC(=O)c1ccc2nc(-c3ccc(C4(N)CCC4)cc3)c(-c3ccccc3)n2c1` [Example 2-56], the values for the IC50 in assay [1], in assay [2] and in assay [3] were 0.452 µM, 0.2 µM and 3.4 µM, respectively.

For `NC1(c2ccc(-c3nc4ccc(C(=O)NC5CC5)cn4c3-c3ccccc3)cc2)CCC1` [Example 2-57], the values for the IC50 in assay [1], in assay [2] and in assay [3] were 0.493 µM, 0.147 µM and 3.1 µM, respectively.

For the compound `NC1(c2ccc(-c3nc4ccc(C(=O)NCC5CC5)cn4c3-c3ccccc3)cc2)CCC1` [Example 2-58], the IC50 in assay [1] was found to be 0.342 µM; in assay [2], 0.193 µM; in assay [3], 1.9 µM.

`NC1(c2ccc(-c3nc4ccc(C(=O)NO)cn4c3-c3ccccc3)cc2)CCC1` [Example 2-59]: the IC50 in assay [1] was 0.257 µM; in assay [2], 0.236 µM; in assay [3] it was 3.8 µM.

Turning to `COC(=O)c1cc(Cl)c2nc(-c3ccc(C4(N)CCC4)cc3)c(-c3ccccc3)n2c1` [Example 2-60], the values for the IC50 in assay [1], in assay [2] and in assay [3] were 0.031 µM, 0.655 µM and 7.7 µM, respectively.

In the case of `CN(C)C(=O)c1ccc2nc(-c3ccc(C4(N)CCC4)cc3)c(-c3ccccc3)n2c1` [Example 2-61], the IC50 in assay [1] is 1.9 µM; in assay [2] it was 0.781 µM; in assay [3], 9.4 µM.

With `CCNC(=O)c1ccc2nc(-c3ccc(C4(N)CCC4)cc3)c(-c3ccccc3)n2c1` [Example 2-62], the values for the IC50 in assay [1], in assay [2] and in assay [3] were 0.376 µM, 0.093 µM and 1.7 µM, respectively.

As for `NC1(c2ccc(-c3nc4ccc(C5CC5)cn4c3-c3ccccc3)cc2)CCC1` [Example 2-63], the figures for the IC50 in assay [1], in assay [2] and in assay [3] were 0.734 µM, 0.256 µM and 2 µM, respectively.

On to `NC1(c2ccc(-c3nc4nc(OCCN5CCCC5=O)ccn4c3-c3ccccc3)cc2)CCC1` [Example 2-64], for which the IC50 worked out at 1.66 µM in assay [1], 0.203 µM in assay [2] and 3.2 µM in assay [3].

Consider `NC(=O)C1(COc2ccn3c(-c4ccccc4)c(-c4ccc(C5(N)CCC5)cc4)nc3n2)CC1` [Example 2-65], for which the figures for the IC50 in assay [1], in assay [2] and in assay [3] were 1.07 µM, 3.83 µM and 10 µM, respectively.

Consider `NC1(c2ccc(-c3nc4cc(Cl)ccn4c3-c3ccccc3)cc2)CCC1` [Example 2-66], for which the IC50 in assay [1] was determined as 0.113 µM; in assay [2] it was 0.134 µM; in assay [3], 1.8 µM.

Consider `NC1(c2ccc(-c3nc4ccccn4c3-c3ccccc3)cc2)CCC1` [Example 2-106, 1-[4-(3-phenyl-imidazo[1,2-a]pyridin-2-yl)-phenyl]-cyclobutylamine], for which the IC50 in assay [1] came out at 0.151 µM; in assay [2], 0.202 µM; in assay [3], 2.1 µM.

Regarding `CCOc1ccc2nc(-c3ccc(C4(N)CCC4)cc3)c(-c3ccccc3)n2c1` [Example 2-107, 1-[4-(6-ethoxy-3-phenyl-imidazo[1,2-a]pyridin-2-yl)-phenyl]-cyclobutylamine], the IC50 stood at 0.204 µM in assay [1], 0.253 µM in assay [2] and 1.7 µM in assay [3].

As usually defined, the IC50 is the point on the concentration scale where inhibition reaches its midpoint.
